In US20100222396A1 (Novartis AG, priority 2009, published 2010) one finds Kd and inhibition data, which are given here for 16 compounds.

Assay [1] has as its target T1, human orexin 1 receptor (hOx1R) (Homo sapiens, UniProt O43613).
T1 construct: expressed in transfected cells
T1 sequence (O43613 1-425): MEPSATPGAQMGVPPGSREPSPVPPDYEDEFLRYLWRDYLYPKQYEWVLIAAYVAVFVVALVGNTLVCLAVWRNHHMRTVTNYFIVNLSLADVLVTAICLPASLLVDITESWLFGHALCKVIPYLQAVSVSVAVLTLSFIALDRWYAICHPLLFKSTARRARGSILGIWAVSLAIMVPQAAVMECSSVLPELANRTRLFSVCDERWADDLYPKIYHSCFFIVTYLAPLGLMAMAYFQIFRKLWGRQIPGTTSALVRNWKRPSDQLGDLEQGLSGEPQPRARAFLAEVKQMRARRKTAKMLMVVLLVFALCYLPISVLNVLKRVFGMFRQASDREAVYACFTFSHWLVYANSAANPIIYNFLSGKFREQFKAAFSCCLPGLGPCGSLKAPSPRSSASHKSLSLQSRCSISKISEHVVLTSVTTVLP
Briefly: Calcium accumulation in cells (FLIPR), antagonism of orexin A, hOx1R. The conditions noted are these: for Kd: cells expressing human orexin 1 receptor, IC50 vs orexin A converted by Cheng and Prusoff correction; for inhibition at 10 µM: measured at a concentration of 10 μM of compound (cells marked ^a). Format: cell-based. The procedure: (§1) Cells expressing human orexin 1 or human orexin 2 receptors, were seeded at 8,000 cells/well in 384 well black-walled clear bottom, poly-D-lysine coated plates. After 24 h, the medium was removed and cells were washed once with phosphate buffered saline and serum-deprived overnight in assay buffer (130 mM NaCl, 5.4 mM KCl, 1.8 mM CaCl2, 0.8 mM MgSO4, 0.9 mM NaH2PO4, 25 mM glucose, 20 mM HEPES, pH 7.4) containing bovine serum albumin (1% w/v).
(§2) On the day of the experiment, the cells seeded in black plates were treated with assay buffer containing the Ca^2+ sensitive fluorescent dye Fluo-4-AM (2 μM), and probenecid (0.1 mM). After 1 h plates were washed twice with, and resuspended in, assay buffer containing probenecid (0.1 mM) using a multi plate washer. The plates were placed into a FLIPR II (Fluorometric Imaging Plate Reader, Molecular Devices, Sunnyvale, Calif., USA) and baseline fluorescence (fluorescence light units, FLU) was measured (5 measurements, 2 S each; laser excitation 488 nm at 0.6-1 W, CCD camera exposure 0.4 s) before addition of buffer alone (basal) or containing test compounds (either compound of formula I alone, agonist alone or agonist in the presence of various concentrations of compounds of formula I). Fluorescence measurements were then continued every 1 S for 120 S followed by every 4 S for 240 S.
(§3) The measurements were typically made in two sequences:
(§4) Compounds of formula I were tested usually in a concentration range from 10^−9 M to 10^−5 M.
(§5) In the second round, performed one hour later (to allow for equilibration), Orexin A was tested either in the absence (calibration curves, Orexin A agonist controls) or in the presence of compounds of formula I to determine antagonism.

For assay [2], the target named is T2, human orexin 2 receptor (hOx2R) (Homo sapiens, UniProt O43614).
T2 construct: expressed in transfected cells
T2 sequence (O43614 1-444): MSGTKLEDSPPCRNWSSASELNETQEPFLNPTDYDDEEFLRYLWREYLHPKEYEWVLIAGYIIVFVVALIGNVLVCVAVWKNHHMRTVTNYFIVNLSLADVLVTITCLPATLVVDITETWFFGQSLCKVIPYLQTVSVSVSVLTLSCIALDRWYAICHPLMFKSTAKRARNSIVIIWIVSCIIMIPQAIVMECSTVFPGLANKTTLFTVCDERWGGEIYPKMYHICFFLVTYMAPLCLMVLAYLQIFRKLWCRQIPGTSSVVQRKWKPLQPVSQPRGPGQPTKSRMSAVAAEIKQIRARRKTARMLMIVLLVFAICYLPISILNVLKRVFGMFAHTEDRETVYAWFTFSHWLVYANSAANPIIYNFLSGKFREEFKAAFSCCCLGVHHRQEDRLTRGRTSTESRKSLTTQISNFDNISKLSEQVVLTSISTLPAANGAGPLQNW
Description: Calcium accumulation in cells (FLIPR), antagonism of orexin A, hOx2R. Conditions: for Kd: cells expressing human orexin 2 receptor, IC50 vs orexin A converted by Cheng and Prusoff correction. Type of assay: cell-based. The protocol:
as §1, §2, §3, §4, §5

Assay [3] addresses T1, human orexin 1 receptor (hOx1R). Description: Radioligand binding assay ([125I]orexin A competition), hOx1R. Conditions: CHO or HEK cell membranes, 1 h room temperature. The protocol: (§6) For crude cell membrane preparations, cells (CHO, Chinese hamster ovary or HEK, human embryonic kidney) expressing human orexin 1 or human orexin 2 receptors, were washed with HEPES (10 mM, pH 7.5), scraped off the culture plates with the same buffer, and centrifuged at 4° C. for 5 min at 2500×g. The cell pellet was either stored at −80° C. or used directly. Before the experiments, cell membranes were re-suspended in binding assay buffer (10 mM HEPES, 0.5% (w/v) bovine serum albumin, pH 7.5) by homogenisation with a Polytron homogeniser at 50 Hz for 20 s. Cell membranes were also used as made available by commercial providers.
(§7) In initial saturation experiments (to calculate Bmax), cell homogenates (150 μl) were incubated with 25-300 pM of the radioligand ([^125I]orexin A, 50 μl), 8 concentrations in triplicates in the presence or absence Orexin A (1 μM, 50 μl) to define non specific binding. Bound radioactivity was measured, and data were analysed with the program XLFIT or Graphpad Prism. Protein concentration was determined according to the Bradford/BioRad Protein Assay Kit.
(§8) In competition experiments, cell homogenates (150 μl) were incubated in assay buffer (10 mM HEPES, pH 7.5, 0.5% (w/v) bovine serum albumin, 5 mM MgCl2, […], and tween 0.05%) for 1 h at room temperature with about […] of the radioligand ([^125I]orexin A, 2100 Ci/mmole, 50 μl), and with various concentrations of compounds of the invention (50 μl) in triplicates; non-specific binding was determined in the presence of Orexin A (1 μM). Reactions were terminated by vacuum filtration, 3 washes of ice cold wash buffer (Tris-HCl pH 7.4/10 mM, with NaCl 154 mM). Competition data is expressed in Table 1 as Kd [μM].

The target of assay [4] is T2, human orexin 2 receptor (hOx2R). Briefly: Radioligand binding assay ([125I]orexin A competition), hOx2R. Conditions: CHO or HEK cell membranes, 1 h room temperature. The protocol: as §6, §7, §8

Usually Kd stands for a measure of binding affinity in units of concentration. “1-Methyl-1H-pyrrole-2-carboxylic acid {(8)-3-[(3,5-difluoro-benzoyl)-methyl-amino]-4-phenyl-butyl}-amide [Example 118]”: the Kd in assay [1] is 1070 nM; in assay [2], 55 nM; in assay [3], 977 nM; in assay [4], 76 nM.
Turning to `CN(C(=O)c1ccc2c(c1)OCO2)[C@H](CCNC(=O)c1ccccn1)Cc1ccccc1` [Example 1, Pyridine-2-carboxylic acid {(S)-3-[(benzo[1,3]dioxole-5-carbonyl)-methyl-amino]-4-phenyl-butyl}-amide], the Kd is 228 nM in assay [1] and 179 nM in assay [3].
For orientation: inhibition means the relative decrease from the control value, in per cent. Consider `CN(C(=O)c1ccccc1)[C@H](CCNC(=O)c1ccnc2ccccc12)Cc1ccccc1` [Example 2, Quinoline-4-carboxylic acid [(S)-3-(benzoyl-methyl-amino)-4-phenyl-butyl]-amide], for which the inhibition at 10 µM in assay [1] is 4%; in assay [2] (measured at a concentration of 10 μM of compound (cells marked ^a)) it was 19%. Further, the results for the dissociation constant Kd in assay [3] and in assay [4] were more than 10000 nM and 4970 nM, respectively.
Consider `CN(C(=O)c1cccc2[nH]ccc12)[C@H](CCNC(=O)c1nc2ccccc2n1C)Cc1ccccc1` [Example 3, 1-Methyl-1H-benzoimidazole-2-carboxylic acid {(S)-3-[(1H-indole-4-carbonyl)-methyl-amino]-4-phenyl-butyl}-amide], for which the Kd in assay [1] is 48 nM; in assay [2], 3 nM; in assay [3], 17 nM; in assay [4] it was 10 nM.
Taken in the same sequence, the figures for `CN(C(=O)c1cccc(C(F)(F)F)c1)[C@H](CCNC(=O)c1ccccn1)Cc1ccccc1` [Example 4, Pyridine-2-carboxylic acid {(S)-3-[methyl-(3-trifluoromethyl-benzoyl)-amino]-4-phenyl-butyl}-amide] were 173 nM, 44 nM, 112 nM and 14 nM.
Taken in the same sequence, the figures for `CN(C(=O)c1cc(C(F)(F)F)cc(C(F)(F)F)c1)[C@H](CCNC(=O)c1ccccn1)Cc1ccccc1` [Example 5, Pyridine-2-carboxylic acid {(S)-3-[(3,5-bis-trifluoromethyl-benzoyl)-methyl-amino]-4-phenyl-butyl}-amide] were 511 nM, 8 nM, 999 nM and 18 nM.
The matching figures for `CN(C(=O)c1cccc2ccccc12)[C@H](CCNC(=O)c1ccccn1)Cc1ccccc1` [Example 6, Pyridine-2-carboxylic acid {(S)-3-[methyl-(naphthalene-1-carbonyl)-amino]-4-phenyl-butyl}-amide]: 31 nM, 57 nM, 25 nM and 20 nM.
Take `CN(C(=O)c1ccc2[nH]ccc2c1)[C@H](CCNC(=O)c1ccccn1)Cc1ccccc1` [Example 7, 1H-Indole-5-carboxylic acid {(S)-1-benzyl-3-[(pyridine-2-carbonyl)-amino]-propyl}-methyl-amide]: the Kd in assay [1] was found to be 16 nM; in assay [2] it was 40 nM; in assay [3] it was 7 nM; in assay [4], 41 nM.
The matching figures for `CCN(C(=O)c1ccc2c(c1)OCO2)[C@H](CCNC(=O)c1ccccn1)Cc1ccccc1` [Example 8, Pyridine-2-carboxylic acid {(S)-3-[(benzo[1,3]dioxole-5-carbonyl)-ethyl-amino]-4-phenyl-butyl}-amide]: 211 nM, 32 nM, 270 nM and 46 nM.
Taken in the same sequence, the figures for `COc1ccc(C(=O)N(C)[C@H](CCNC(=O)c2ccccn2)Cc2ccccc2)cc1OC` [Example 9, Pyridine-2-carboxylic acid {(S)-3-[(3,4-dimethoxy-benzoyl)-methyl-amino]-4-phenyl-butyl}-amide] were 1400 nM, 145 nM, 474 nM and 46 nM.
Consider `CN(C(=O)c1cccc2c1OCO2)[C@H](CCNC(=O)c1ccccn1)Cc1ccccc1` [Example 30, Pyridine-2-carboxylic acid {(S)-3-[(benzo[1,3]dioxole-4-carbonyl)-methyl-amino]-4-phenyl-butyl}-amide], for which the Kd was determined as 2190 nM in assay [1] and 1100 nM in assay [3].
For the compound `CN(C(=O)c1ccc2c(c1)OCO2)[C@@H](CCNC(=O)c1ccccn1)Cc1ccccc1` [Example 47, Pyridine-2-carboxylic acid {(R)-3-[(benzo[1,3]dioxole-5-carbonyl)-methyl-amino]-4-phenyl-butyl}-amide], the figures for the Kd in assay [1] and in assay [3] were 6290 nM and 12300 nM, respectively.
Taken in the same sequence, the figures for `CN(C(=O)c1cccc2c1OCO2)[C@@H](CCNC(=O)c1ccccn1)Cc1ccccc1` [Example 61, Pyridine-2-carboxylic acid {(R)-3-[(benzo[1,3]-dioxole-4-carbonyl)-methyl-amino]-4-phenyl-butyl}-amide] were 3830 nM and 4560 nM.
Consider `COc1cc(Cl)cc(C(=O)N(C)[C@H](CCNC(=O)c2cccn2C)Cc2ccccc2)c1` [Example 106, 1-Methyl-1H-pyrrole-2-carboxylic acid {(S)-3-[(3-chloro-5-methoxy-benzoyl)-methyl-amino]-4-phenyl-butyl}-amide], for which the Kd in assay [1] was found to be 84 nM; in assay [3], 50 nM; in assay [4] it was 3 nM.
Consider `[2H]C([2H])(c1ccccc1)C(CCNC(=O)c1ccccn1)N(C)C(=O)c1ccc2c(c1)OCO2` (stereo not shown) [Example 110, Pyridine-2-carboxylic acid {3-[(benzo[1,3]dioxole-5-carbonyl)-methyl-amino]-4,4-dideutero-4-phenyl-butyl}-amide], for which the results for the Kd in assay [1] and in assay [3] were 1730 nM and 1380 nM, respectively.
On to `CN(C(=O)c1ccc2c(c1)OCO2)[C@@H](Cc1ccccc1)C(C)(C)CNC(=O)c1ccccn1` [Example 113, Pyridine-2-carboxylic acid {(S)-3-[(benzo[1,3]dioxole-5-carbonyl)-methyl-amino]-2,2-dimethyl-4-phenyl-butyl}-amide], for which the inhibition at 10 µM in assay [1] was 24%. Moreover, the Kd was 497 nM in assay [2] and 531 nM in assay [4].
